The source made the active and inactive calls.
Key:
[1] = target: Beta-galactosidase (Escherichia coli, UniProt Q8VNN2); experiment: detection-enzyme interference by beta-gal modulators – biochemical, E. coli enzyme, set 3, artefact control for CCR6 antagonist project, dose response (AID 504712); assay type: functional
[2] = Luminescence-based dose response cell-based high throughput screening assay for cytotoxic compounds using the IEC-6 intestinal epithelial cell line. [Related pubchem assays: 1858 (Summary AID.), 1825 (Counterscreen.), 1907 (Confirmation screen.)]; assay type: functional
[3] = target: T1, Rac GTPase-activating protein 1 (Homo sapiens, UniProt Q9H0H5); experiment: blockers of MgcRacGAP-driven Rac1 GTP hydrolysis – biochemical, ADP Hunter fluorescence, primary and confirmatory, confirmation (AID 624330); assay type: functional
T1 sequence (Q9H0H5 whole entry): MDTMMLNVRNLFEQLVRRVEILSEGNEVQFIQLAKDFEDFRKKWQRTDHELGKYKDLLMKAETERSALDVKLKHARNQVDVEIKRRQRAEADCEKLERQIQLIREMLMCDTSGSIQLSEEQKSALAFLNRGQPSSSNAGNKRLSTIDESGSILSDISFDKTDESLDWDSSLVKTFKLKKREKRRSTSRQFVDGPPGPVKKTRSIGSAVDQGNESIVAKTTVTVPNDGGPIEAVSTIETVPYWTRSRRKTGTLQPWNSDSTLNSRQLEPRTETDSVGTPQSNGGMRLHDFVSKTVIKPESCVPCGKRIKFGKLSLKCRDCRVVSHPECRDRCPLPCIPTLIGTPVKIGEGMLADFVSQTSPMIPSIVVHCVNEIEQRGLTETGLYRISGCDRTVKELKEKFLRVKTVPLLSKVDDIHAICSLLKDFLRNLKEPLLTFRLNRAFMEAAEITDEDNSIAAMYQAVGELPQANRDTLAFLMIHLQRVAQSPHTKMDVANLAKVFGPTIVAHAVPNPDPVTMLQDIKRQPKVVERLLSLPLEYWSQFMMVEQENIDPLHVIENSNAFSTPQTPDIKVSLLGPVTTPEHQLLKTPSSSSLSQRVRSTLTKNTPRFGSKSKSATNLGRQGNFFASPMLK

[4] = target: 1-phosphatidylinositol 4,5-bisphosphate phosphodiesterase beta-3 (Homo sapiens, UniProt Q01970); experiment: Fluorescence-based biochemical high throughput dose response assay to identify inhibitors of phospholipase C isozymes (PLC-B3).
[5] = alpha-synuclein stem-loop luciferase translation blockers – H4 neuroglioma cells, luminescence, confirmation (AID 1988); assay type: functional, cell-based
[6] = MIN6 cell viability loss – mouse insulinoma, cytotoxicity control, dose response (AID 2122); assay type: functional;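 note: confirmatory high-throughput counterscreen run to flag cytotoxic compounds; mouse MIN-6 beta cells carrying an insulin promoter eGFP reporter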
[7] = Luminescence Cell-Based Dose Response HTS to Identify Inhibitors of 5'UTR Stem-Loop Driven Prion Protein mRNA Translation in H4 Neuroglioblastoma Cells. [Related pubchem assays: 1827 (Project Summary), 1813 (Primary HTS)]; assay type: functional
[8] = target: T2, Hexokinase HKDC1 (Homo sapiens, UniProt Q2TB90); experiment: SAR analysis of small molecule inhibitors of hexokinase domain containing I (HKDC1). [Related pubchem assays (depositor defined):AID493160, AID493190]; assay type: functional
T2 sequence (Q2TB90 whole entry): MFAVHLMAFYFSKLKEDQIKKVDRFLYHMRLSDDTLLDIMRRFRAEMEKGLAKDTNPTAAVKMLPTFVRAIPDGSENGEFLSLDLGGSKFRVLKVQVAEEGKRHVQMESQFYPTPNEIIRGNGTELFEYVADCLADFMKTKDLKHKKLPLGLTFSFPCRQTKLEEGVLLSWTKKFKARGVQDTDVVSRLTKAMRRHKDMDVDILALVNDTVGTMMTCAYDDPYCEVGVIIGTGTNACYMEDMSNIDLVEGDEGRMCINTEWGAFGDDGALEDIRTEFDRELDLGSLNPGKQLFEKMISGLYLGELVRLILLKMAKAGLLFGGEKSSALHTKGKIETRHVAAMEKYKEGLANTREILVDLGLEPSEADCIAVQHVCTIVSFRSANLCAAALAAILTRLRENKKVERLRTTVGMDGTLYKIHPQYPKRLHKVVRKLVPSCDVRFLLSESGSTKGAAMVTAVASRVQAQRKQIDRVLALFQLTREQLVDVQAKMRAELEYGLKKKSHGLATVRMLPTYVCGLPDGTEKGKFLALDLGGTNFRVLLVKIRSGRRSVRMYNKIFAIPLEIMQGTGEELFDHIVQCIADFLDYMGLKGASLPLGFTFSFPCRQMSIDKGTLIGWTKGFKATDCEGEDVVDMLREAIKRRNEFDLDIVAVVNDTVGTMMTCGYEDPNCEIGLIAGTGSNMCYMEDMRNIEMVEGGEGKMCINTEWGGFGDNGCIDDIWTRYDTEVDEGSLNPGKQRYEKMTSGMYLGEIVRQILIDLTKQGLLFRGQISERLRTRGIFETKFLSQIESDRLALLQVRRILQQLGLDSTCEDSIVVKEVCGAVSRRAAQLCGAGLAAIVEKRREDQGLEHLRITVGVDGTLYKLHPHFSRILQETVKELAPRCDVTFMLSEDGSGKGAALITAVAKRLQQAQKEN

[9] = tested on: BJ; experiment: BJ-TERT-LT-ST fibroblast viability loss – cell-based, RAS-independent, luminescence, dose response (AID 1935); assay type: functional; conditions: Homo sapiens;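 note: BJ fibroblasts immortalized with TERT plus LT and ST oncogenes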
[10] = target: Cytochrome P450 3A4 (Homo sapiens, UniProt P08684);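 note: CYP3A4 tested as one member of a cytochrome P450 panel screen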
[11] = target: G-protein coupled receptor 35 (Homo sapiens, UniProt Q9HC97); experiment: inhibition of zaprinast-stimulated GPR35 beta-arrestin translocation – imaging, U2OS, beta-arrestin-GFP, zaprinast agonist, primary screen (AID 2058); assay type: functional;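 note: antagonist potency meaning inhibition of agonist-induced arrestin redistribution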
[12] = target: T3, X-box-binding protein 1 (Homo sapiens, UniProt P17861); assay type: functional, Cricetulus griseus;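 note: confirmatory dose-response counter-screen serving a CHOP assay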
T3 sequence (P17861 whole entry): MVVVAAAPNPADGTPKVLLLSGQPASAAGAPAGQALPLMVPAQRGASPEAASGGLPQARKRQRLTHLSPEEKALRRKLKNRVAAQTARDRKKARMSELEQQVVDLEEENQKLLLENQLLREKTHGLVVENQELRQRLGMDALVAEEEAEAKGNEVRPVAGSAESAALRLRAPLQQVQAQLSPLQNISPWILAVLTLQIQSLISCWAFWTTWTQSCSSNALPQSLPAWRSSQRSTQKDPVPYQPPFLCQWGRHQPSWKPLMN

[13] = target: DNA damage-inducible transcript 3 protein (Mus musculus, UniProt P35639); assay type: functional, Cricetulus griseus
[14] = viability of uninfected HEp-2 cells – cell-based, HTS, cytotoxicity control for RSV inhibitor project, dose response (AID 2410); assay type: functional; conditions: human respiratory syncytial virus
[15] = target: Intestinal-type alkaline phosphatase (Mus musculus, UniProt P24822); experiment: mouse intestinal alkaline phosphatase activators, dose response, biochemical, luminescence, uHTS hits (AID 488783); assay type: functional
[16] = target: Glutathione-S-transferase (Schistosoma japonicum, UniProt Q26513); experiment: GST-antibody interaction or FRET quenching – biochemical, TR-FRET, artefact control for Vif-APOBEC3G degradation inhibitor project, dose response (AID 1117362); assay type: functional
[17] = target: Transitional endoplasmic reticulum ATPase (Homo sapiens, UniProt P55072); experiment: p97 ATPase inhibitors, dose response, biochemical (AID 1534)
Chain of Transitional endoplasmic reticulum ATPase (P55072 whole entry): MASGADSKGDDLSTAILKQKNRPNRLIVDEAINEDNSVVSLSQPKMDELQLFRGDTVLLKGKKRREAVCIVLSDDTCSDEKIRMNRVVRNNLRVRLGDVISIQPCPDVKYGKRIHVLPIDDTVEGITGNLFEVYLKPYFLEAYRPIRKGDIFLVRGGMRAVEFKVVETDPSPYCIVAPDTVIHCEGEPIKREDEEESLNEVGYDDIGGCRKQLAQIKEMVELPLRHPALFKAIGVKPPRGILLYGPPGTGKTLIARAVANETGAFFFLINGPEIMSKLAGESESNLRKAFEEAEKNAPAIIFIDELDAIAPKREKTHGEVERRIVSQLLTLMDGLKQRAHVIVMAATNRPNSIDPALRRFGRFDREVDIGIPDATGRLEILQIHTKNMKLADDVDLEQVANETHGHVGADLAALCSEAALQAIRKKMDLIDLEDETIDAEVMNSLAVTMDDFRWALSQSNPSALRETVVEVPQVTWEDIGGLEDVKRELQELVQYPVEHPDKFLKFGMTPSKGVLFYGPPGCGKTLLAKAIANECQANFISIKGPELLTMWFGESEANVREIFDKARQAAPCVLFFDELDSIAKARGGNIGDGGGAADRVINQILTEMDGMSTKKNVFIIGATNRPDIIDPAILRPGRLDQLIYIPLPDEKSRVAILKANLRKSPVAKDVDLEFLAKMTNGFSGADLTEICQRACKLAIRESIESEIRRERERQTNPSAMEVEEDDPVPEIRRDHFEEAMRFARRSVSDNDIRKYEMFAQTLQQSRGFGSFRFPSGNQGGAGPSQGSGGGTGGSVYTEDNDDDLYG

Chain of Intestinal-type alkaline phosphatase (P24822 whole entry): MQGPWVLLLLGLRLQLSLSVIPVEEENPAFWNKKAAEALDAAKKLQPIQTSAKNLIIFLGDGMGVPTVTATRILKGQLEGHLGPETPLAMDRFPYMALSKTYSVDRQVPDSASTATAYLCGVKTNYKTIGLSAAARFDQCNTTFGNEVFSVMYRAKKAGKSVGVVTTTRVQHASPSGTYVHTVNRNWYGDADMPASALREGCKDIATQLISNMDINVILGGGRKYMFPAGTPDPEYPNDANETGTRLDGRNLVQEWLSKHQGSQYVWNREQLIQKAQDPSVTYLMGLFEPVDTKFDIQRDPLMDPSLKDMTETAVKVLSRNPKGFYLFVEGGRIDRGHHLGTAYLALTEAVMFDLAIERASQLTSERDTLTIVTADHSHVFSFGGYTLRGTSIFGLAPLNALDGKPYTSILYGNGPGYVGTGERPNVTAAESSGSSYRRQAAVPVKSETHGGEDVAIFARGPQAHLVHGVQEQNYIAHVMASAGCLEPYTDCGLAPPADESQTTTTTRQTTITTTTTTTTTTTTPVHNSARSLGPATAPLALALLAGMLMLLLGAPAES
Chain of Glutathione-S-transferase (Q26513 whole entry): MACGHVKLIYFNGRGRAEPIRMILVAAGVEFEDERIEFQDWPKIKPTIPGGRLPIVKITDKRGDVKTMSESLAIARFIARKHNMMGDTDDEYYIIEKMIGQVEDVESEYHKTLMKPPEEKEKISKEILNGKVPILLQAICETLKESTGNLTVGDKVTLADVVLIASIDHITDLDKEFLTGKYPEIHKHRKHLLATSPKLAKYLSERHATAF
Chain of 1-phosphatidylinositol 4,5-bisphosphate phosphodiesterase beta-3 (Q01970 whole entry): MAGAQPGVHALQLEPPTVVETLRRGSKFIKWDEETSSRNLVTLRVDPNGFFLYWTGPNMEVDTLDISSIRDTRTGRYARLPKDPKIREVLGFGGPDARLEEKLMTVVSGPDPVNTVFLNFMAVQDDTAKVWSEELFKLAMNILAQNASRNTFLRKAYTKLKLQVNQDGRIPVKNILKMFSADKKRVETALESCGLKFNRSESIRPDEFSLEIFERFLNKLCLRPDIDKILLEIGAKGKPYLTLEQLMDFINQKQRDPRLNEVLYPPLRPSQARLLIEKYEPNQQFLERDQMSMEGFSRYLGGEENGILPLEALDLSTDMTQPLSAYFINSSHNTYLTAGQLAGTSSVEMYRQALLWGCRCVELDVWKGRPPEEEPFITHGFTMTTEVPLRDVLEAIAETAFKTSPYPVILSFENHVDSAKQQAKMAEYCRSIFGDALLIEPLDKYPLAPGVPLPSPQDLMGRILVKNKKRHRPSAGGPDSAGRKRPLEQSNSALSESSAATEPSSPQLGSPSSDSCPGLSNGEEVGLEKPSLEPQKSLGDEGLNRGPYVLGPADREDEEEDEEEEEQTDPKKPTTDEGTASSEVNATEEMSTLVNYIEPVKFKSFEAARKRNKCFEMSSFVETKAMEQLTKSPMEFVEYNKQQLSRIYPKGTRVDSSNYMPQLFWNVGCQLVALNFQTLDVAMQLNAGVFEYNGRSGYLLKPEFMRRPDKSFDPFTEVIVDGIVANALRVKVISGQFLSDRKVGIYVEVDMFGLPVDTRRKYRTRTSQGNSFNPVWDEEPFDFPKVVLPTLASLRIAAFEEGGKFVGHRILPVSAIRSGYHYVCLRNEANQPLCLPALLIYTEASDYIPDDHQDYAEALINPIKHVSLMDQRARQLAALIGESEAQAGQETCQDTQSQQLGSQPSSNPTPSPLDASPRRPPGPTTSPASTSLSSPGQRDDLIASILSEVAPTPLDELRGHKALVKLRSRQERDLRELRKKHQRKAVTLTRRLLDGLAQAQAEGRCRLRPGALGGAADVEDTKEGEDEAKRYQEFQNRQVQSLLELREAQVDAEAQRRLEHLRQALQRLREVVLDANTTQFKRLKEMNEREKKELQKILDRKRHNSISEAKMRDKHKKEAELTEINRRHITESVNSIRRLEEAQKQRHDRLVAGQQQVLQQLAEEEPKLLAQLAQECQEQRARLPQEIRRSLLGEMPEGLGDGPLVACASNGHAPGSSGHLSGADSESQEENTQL
Chain of G-protein coupled receptor 35 (Q9HC97 whole entry): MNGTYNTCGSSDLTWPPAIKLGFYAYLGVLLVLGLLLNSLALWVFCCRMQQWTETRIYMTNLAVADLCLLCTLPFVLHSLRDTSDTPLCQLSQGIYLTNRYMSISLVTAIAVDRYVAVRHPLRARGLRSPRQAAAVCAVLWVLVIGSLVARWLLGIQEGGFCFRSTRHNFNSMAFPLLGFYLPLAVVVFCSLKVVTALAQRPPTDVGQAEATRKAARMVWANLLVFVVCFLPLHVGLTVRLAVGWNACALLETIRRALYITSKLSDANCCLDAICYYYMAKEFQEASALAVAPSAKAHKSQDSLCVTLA
Chain of Cytochrome P450 3A4 (P08684 whole entry): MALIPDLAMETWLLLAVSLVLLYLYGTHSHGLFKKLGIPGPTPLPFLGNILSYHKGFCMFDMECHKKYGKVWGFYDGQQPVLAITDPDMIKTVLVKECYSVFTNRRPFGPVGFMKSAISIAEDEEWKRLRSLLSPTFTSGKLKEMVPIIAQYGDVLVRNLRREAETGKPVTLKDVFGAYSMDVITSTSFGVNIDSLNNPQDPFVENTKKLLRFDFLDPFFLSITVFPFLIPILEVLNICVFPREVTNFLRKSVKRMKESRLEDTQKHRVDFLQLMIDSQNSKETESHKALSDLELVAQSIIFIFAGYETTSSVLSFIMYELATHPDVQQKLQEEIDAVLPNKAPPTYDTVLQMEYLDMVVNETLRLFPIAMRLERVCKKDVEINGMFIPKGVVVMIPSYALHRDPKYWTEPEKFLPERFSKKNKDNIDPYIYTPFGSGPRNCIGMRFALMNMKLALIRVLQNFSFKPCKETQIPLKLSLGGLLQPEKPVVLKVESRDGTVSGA
Chain of DNA damage-inducible transcript 3 protein (P35639 whole entry): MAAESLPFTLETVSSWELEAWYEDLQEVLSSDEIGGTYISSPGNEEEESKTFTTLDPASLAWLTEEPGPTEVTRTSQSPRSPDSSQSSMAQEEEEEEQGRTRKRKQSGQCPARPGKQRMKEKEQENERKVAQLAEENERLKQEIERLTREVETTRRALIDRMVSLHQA
Chain of Beta-galactosidase (Q8VNN2 whole entry): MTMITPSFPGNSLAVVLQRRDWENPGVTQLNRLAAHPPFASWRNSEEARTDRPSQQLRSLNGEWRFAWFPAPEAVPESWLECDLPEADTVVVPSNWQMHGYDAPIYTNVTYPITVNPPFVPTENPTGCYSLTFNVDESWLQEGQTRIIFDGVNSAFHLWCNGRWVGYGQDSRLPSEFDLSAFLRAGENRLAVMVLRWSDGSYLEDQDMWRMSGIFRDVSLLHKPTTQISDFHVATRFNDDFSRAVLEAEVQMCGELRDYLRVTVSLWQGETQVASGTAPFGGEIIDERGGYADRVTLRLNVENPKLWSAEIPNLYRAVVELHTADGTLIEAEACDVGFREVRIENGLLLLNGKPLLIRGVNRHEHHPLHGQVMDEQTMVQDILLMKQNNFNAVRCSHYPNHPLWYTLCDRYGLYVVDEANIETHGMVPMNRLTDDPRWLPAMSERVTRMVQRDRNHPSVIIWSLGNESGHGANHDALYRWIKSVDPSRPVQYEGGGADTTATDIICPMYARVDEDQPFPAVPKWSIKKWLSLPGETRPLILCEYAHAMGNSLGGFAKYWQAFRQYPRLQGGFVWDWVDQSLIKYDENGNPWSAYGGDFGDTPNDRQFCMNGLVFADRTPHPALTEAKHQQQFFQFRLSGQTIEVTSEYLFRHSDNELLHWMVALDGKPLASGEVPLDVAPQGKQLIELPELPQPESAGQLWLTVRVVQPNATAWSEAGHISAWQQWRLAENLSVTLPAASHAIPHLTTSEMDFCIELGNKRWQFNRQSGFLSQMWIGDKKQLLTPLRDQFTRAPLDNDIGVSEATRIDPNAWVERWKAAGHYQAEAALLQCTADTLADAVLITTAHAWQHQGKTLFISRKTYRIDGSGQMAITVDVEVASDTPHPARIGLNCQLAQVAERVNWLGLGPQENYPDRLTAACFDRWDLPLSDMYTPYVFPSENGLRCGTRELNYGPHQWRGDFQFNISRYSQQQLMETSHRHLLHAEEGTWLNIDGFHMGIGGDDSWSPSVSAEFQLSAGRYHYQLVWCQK

Which IC50 [1] does the source give for `O=C1C(Nc2ccc(O)cc2)=C/C(=N/S(=O)(=O)c2cccs2)c2ccccc21` here?
The IC50 was > 66.6 µM (inactive).

What about the IC50 [2] of the same compound?
Its IC50 is 0.428 µM (active).

And the IC50 [3]?
Its IC50 is 41.8 µM (active).

And the IC50 [4]?
The IC50 was > 40.8 µM (inactive).

What about the EC50 [5] of the same compound?
The EC50 was 5.59 µM (active).

What about the IC50 [6] of the same compound?
Its IC50 is 0.702 µM (active).

What about the EC50 [7] of the same compound?
The EC50 was 0.236 µM (active).

With `COc1ccc(S(=O)(=O)Nc2cc(SCC(=O)O)c(O)c3ccccc23)cc1` as the compound, how does the IC50 [8] read?
Its IC50 is 10.5 µM (active).

Which EC50 [9] does the source give for `O=C(/C=C/c1ccco1)Nc1ccc(Oc2ccccc2)cc1` here?
Its EC50 is > 150 µM (inconclusive).

And the AC50 [10]?
The AC50 was 39.8 µM (inconclusive).

For `CCc1nnc(NS(=O)(=O)c2ccc(NC(=S)NC(=O)/C=C/c3ccc(C(C)C)cc3)cc2)s1`, which IC50 [11] is on record?
The IC50 was 1.59 µM (active).

And the “Absolute IC50 (XBP1)” value [12]?
Its value is 10 µM.

What about the “Absolute IC50 (CHOP)” value [13] of the same compound?
The value was 10 µM.

And the CC50 [14]?
Its CC50 is 17.2 µM (active).

With `CC1CC(=O)c2c(cc3c(-c4c(O)cc(O)c5c(O)c6c(cc45)OC(C)CC6=O)c(O)cc(O)c3c2O)O1` (configuration not stated) [CEPHALOCHROMIN] as the compound, how does the EC50 [15] read?
Its EC50 is 19.1 µM (active).

What about the IC50 [16] of the same compound?
The IC50 was > 100 µM (active).

And the IC50 [17]?
The IC50 was 43.9 µM (not active).

Source: ChEMBL document CHEMBL1201862, “PubChem BioAssay data set” (2004)
